Laboratory results: patent US20060247233A1, “Thiazoles inhibitors of the alk-5 receptor” (priority 2003, published 2006)

Experiments:
[1] = system: HepG2 cells stably transfected with the PAI-1 promoter linked to a luciferase (firefly) reporter gene, exposed to TGF-β; test: Assay 1 (Cellular Transcriptional Assay): TGF-β induced PAI-1 promoter luciferase reporter; settings: for IC50: Homo sapiens, HepG2, read-out: TGF-β cellular activity (IC50)
Description: The assay was performed in HepG2 cells stably transfected with the PAI-1 promoter (known to be a strong TGF-β responsive promoter) linked to a luciferase (firefly) reporter gene. The compounds were selected on their ability to inhibit luciferase activity in cells exposed to TGF-β. In addition, cells were transfected with a second luciferase (Renilla) gene which was not driven by a TGF-β responsive promoter and was used as a toxicity control.
96 well microplates were seeded, using a multidrop apparatus, with the stably transfected cell line at a concentration of 35000 cells per well in 200 μl of serum-containing medium. These plates were placed, in a cell incubator.
18 to 24 hours later (Day 2), cell-incubation procedure was launched: Cells were incubated with TGF-β and a candidate compound at concentrations in the range 50 nM to 10 μM (final concentration of DMSO 1%). The final concentration of TGF-β (rhTGFβ-1) used in the test was 1 ng/mL. […] The final volume of the test reaction was 150 μl. Each well contained only one candidate compound and its effect on the PAI-1 promoter was monitored.
Columns 11 and 12 were employed as controls. Column 11 contained 8 wells in which the cells were incubated in the presence of TGF-β, without a candidate compound. Column 11 was used to determine the ‘reference TGF-β induced firefly luciferase value’ against which values measured in the test wells (to quantify inhibitory activity) were compared. In wells A12 to D12, cells were grown in medium without TGF-β. […]
12 to 18 hours later (day 3), the luciferase quantification procedure was launched. […] Following agitation (15 to 30 mins), luciferase activities of the plates were read in a dual-injector luminometer (BMG lumistar). For this purpose, 50 μl of luciferase assay reagent and 50 μl of ‘Stop & Glo’ buffer were injected sequentially to quantify the activities of both luciferases. […] For each of the compounds tested, a concentration response curve was constructed from which an IC50 value was determined graphically.

[2] = target: T1, recombinant GST-ALK5 (residues 198-503) (Homo sapiens, UniProt P36897); test: Assay 2 (Alk5 Fluorescence Polarization Assay); format: binding; settings: rhodamine green-labelled ligand 1 nM, ALK5 10 nM, read-out: ALK5 receptor modulator activity (IC50)
T1 construct: assays using recombinant GST-ALK5 (residues 198-503); GST (N)
T1 sequence (P36897 198-503): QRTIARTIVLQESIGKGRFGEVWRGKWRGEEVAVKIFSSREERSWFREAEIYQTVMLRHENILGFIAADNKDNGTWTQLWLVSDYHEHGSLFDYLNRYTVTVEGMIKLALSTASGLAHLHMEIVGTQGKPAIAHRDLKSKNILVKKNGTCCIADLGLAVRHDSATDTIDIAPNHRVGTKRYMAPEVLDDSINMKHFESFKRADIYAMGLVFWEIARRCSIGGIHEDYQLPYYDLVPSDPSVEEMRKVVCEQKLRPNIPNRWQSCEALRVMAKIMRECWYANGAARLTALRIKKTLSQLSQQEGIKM
Description: Assay 2 (Alk5 Fluorescence Polarization Assay)
Kinase inhibitor compounds conjugated to fluorophores, can be used as fluorescent ligands to monitor ATP competitive binding of other compounds to a given kinase. The increase in depolarization of plane polarized light, caused by release of the bound ligand into solution, is measured as a polarization/anisotropy value. This protocol details the use of a rhodamine green-labelled ligand for assays using recombinant GST-ALK5 (residues 198-503).
Assay buffer components: 62.5 mM Hepes pH 7.5 (Sigma H-4034), 1 mM DTT (Sigma D-0632), 12.5 mM MgCl2 (Sigma M-9272), 1.25 mM CHAPS (Sigma C-3023). […]
ALK5 was added to assay buffer containing the above components and 1 nM of the rhodamine green-labelled ligand so that the final ALK5 concentration was 10 nM based on active site titration of the enzyme. […] The plates were read immediately on a UL Acquest fluorescence reader (Molecular Devices, serial number AQ1048) with excitation, emission, and dichroic filters of 485 nm, 530 nm, and 505 nm, respectively. The fluorescence polarization for each well was calculated by the Acquest reader and then imported into curve fitting software for construction of concentration response curves. The normalized response was determined relative to the high controls (1 μl DMSO in column 12, rows […]) and the low controls (1 μl of control compound in column 12, rows E-H). […]

melting point	IC50 [2]	IC50 [1]	Compound	firefly and renilla luciferase activities, relative to TGF-β only wells ([1]; 500 μM, in the presence of TGF-β, toxicity control)
–	–	–	O=C1C=CCC1 [CPO, Cyclopentenone, reference compound]	around 50%
244 to 246 °C	16 nM	11 nM	Cc1cccc(-c2nc(N)sc2-c2ccc3ncn(C)c3c2)n1 [Example 1, 5-(1-methyl-benzimidazol-6-yl)-4-(6-methylpyridin-2-yl)-1,3-thiazol-2-amine]	–
188 to 190 °C	–	–	Cc1cccc(-c2sc(N)nc2-c2ccc3ncoc3c2)n1 [Example 2, 4-(benzoxazol-6-yl)-5-(6-methyl-pyridin-2-yl)-1,3-thiazol-2-amine]	–
218 to 220 °C	–	–	CCn1cnc2ccc(-c3sc(N)nc3-c3cccc(C)n3)cc21 [Example 3, 5-(1-ethyl-benzimidazol-6-yl)-4-(6-methylpyridin-2-yl)-1,3-thiazol-2-amine]	–
200 to 202 °C	–	–	COCCn1cnc2ccc(-c3sc(N)nc3-c3cccc(C)n3)cc21 [Example 4, 5-(1-(2-methoxyethyl)-benzimidazol-6-yl)-4-(6-methylpyridin-2-yl)-1,3-thiazol-2-amine]	–
240 to 242 °C	–	–	Cc1cccc(-c2nc(N)sc2-c2ccc3c(c2)N(C)C(=O)CO3)n1 [Example 5, 5-[4-methyl-4H-benzo[1,4]oxazin-3-one-6-yl]-4-(6-methylpyridin-2-yl)-1,3-thiazol-2-amine]	–
228 to 230 °C	27 nM	104 nM	CCN1C(=O)COc2ccc(-c3sc(N)nc3-c3cccc(C)n3)cc21 [Example 6, 5-[4-ethyl-4H-benzo[1,4]oxazin-3-one-6-yl]-4-(6-methylpyridin-2-yl)-1,3-thiazol-2-amine]	–
170 to 172 °C	–	–	Cc1cccc(-c2sc(N)nc2-c2ccc3c(c2)OCO3)n1 [Example 7, 4-(Benzo[1,3]dioxol-5-yl)-5-(6-methylpyridin-2-yl)-1,3-thiazol-2-amine]	–
214 °C	–	–	Nc1nc(-c2ccc3c(c2)OCCO3)c(-c2ccccn2)s1 [Example 8, 4-(Benzodioxan-6-yl)-5-(Pyridin-2-yl)-1,3-thiazol-2-amine]	–
226 °C	–	–	Nc1nc(-c2ccc3ncccc3c2)c(-c2ccccn2)s1 [Example 9, 4-(Quinolin-6-yl)-5-(pyridin-2-yl)-1,3-thiazol-2-amine]	–
